Measurements published in the NIST ThermoML archive (doi:10.1021/je700140j).

Assay: xn = mol fraction of the nth substance listed
Settings: for mass density / viscosity: 100.8 kPa, Liquid; for surface tension liquid-gas: Ring tensiometer

OCCc1ccccc1 [2-phenylethanol] + CC(C)O
Settings	mass density, 308.15 K [kg/m3]	mass density, 318.15 K [kg/m3]	surface tension liquid-gas, 318.15 K [mN/m]	viscosity, 308.15 K [mPa·s]	viscosity, 318.15 K [mPa·s]
x2 = 0	–	1000.98	38.35	–	5.232
x2 = 0.05	–	994.22	37.2	–	4.953
x2 = 0.1	–	986.78	36.13	–	4.645
x2 = 0.15	–	978.99	35.05	–	4.366
x2 = 0.2	–	970.82	33.97	–	4.103
x2 = 0.25	970.19	962.28	32.88	5.341	3.85
x2 = 0.3	961.31	953.36	31.8	4.969	3.6
x2 = 0.35	952.04	943.99	30.75	4.621	3.362
x2 = 0.4	942.3	934.2	29.7	4.286	3.132
x2 = 0.45	932.05	923.92	28.68	3.964	2.912
x2 = 0.5	921.29	913.06	27.68	3.67	2.713
x2 = 0.55	909.98	901.7	26.68	3.389	2.524
x2 = 0.6	898.08	889.7	25.7	3.124	2.342
x2 = 0.65	885.47	877.03	24.83	2.876	2.162
x2 = 0.7	872.12	863.6	24	2.634	1.989
x2 = 0.75	857.98	849.39	23.2	2.407	1.823
x2 = 0.8	842.99	834.3	22.45	2.201	1.665
x2 = 0.85	827.04	818.29	21.7	2.009	1.526
x2 = 0.9	810.09	801.28	20.97	1.859	1.415
x2 = 0.95	792	783.08	20.18	1.693	1.298
